Where a chain is given by its changes, count along the chain named. Where a SMILES comes first, the peptide text is derived from it.

The record followed here is PMC2267855, “Site-directed mutagenesis of Arginine282 suggests how protons and peptides are co-transported by rabbit PepT1” (The International Journal of Biochemistry & Cell Biology, 2008).

What all share (assay type): cell-based, rabbit
In one experiment the target is T1, R282A-PepT1 (Oryctolagus cuniculus, UniProt P36836, R282A).
T1 construct: expressed in transfected cells; host or cells: Xenopus laevis oocytes injected with cRNA
T1 sequence (P36836 1-707 R282A): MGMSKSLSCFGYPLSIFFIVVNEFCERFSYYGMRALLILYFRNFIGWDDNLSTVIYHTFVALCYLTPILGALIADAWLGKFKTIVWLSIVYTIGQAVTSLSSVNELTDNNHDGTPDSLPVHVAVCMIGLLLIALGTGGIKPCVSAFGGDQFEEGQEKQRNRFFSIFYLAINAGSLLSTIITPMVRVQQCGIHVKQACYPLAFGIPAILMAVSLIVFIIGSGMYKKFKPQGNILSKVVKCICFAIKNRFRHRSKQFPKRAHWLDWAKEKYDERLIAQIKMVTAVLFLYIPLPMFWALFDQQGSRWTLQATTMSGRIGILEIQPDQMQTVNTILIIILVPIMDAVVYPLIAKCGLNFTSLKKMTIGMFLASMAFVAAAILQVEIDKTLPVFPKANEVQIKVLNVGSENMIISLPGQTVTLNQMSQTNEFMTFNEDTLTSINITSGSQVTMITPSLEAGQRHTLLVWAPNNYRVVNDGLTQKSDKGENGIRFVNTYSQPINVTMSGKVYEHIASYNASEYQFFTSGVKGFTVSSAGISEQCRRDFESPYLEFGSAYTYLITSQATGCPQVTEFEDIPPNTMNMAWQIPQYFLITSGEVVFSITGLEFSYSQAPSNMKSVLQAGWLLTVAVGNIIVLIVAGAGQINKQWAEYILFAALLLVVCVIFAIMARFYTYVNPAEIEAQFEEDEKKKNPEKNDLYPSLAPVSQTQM
Nature of the experiment: Apparent charge:peptide stoichiometry (two-electrode voltage clamp current / radiolabelled uptake), R282A-PepT1. The settings on record: R282A-PepT1, pHout 5.5, resting membrane potential. The method, then:
(§1) Measurements of membrane potential were made by impaling oocytes with a single glass microelectrode (Intra 767 amplifier, WPI, Stevenage, Hertfordshire, UK) perfused in uptake medium (as above) with or without 0.4 μM D-Phe-L-Gln (synthesised in house), 0.6 mM Gly-L-Gln (Sigma, Poole, UK) or 10 mM 4-aminobenzoic acid (4-AMBA, Sigma). Two-electrode voltage clamp (TEVC) was performed by placing oocytes in a 0.1 ml recording chamber and perfusing with uptake solution (pH 5.5 or 7.4) at a rate of 15 ml/min. Oocytes were impaled by two agarose-cushioned microelectrodes filled with 3 M KCl (0.5–2.0 MΩ) and voltage-clamped at −60 mV using a Geneclamp 500B amplifier and PCLAMP 8.1 software (Axon Instruments, CA, USA). The holding potential was stepped from −60 mV over the range of −150 to +50 mV in 10 mV steps, each pulse lasting 100 ms, and returning to −60 mV in between test voltage pulses. Typically traces were filtered at 1 kHz during recording and digitized at 0.5–5 kHz using the DigiData 1200 interface (Axon Instruments, CA, USA). All experiments were carried out at room temperature.
(§2) In order to calculate the apparent charge:substrate stoichiometry, the peptide induced current that was measured by two-electrode voltage clamp at the oocyte resting membrane potential was divided by the radiolabelled dipeptide uptake in oocytes from the same preparation. […]

In experiment [1] the target is T2, R282E-PepT1 (Oryctolagus cuniculus, UniProt P36836, R282E).
T2 construct: expressed in transfected cells; host or cells: Xenopus laevis oocytes injected with cRNA
T2 sequence (P36836 1-707 R282E): T1 sequence (P36836 1-707 R282A) with A282E
Kind of experiment: Apparent charge:peptide stoichiometry (two-electrode voltage clamp current / radiolabelled uptake), R282E-PepT1. The settings on record: R282E-PepT1, pHout 5.5, resting membrane potential. As for the experimental part:
as §1, §2
A general note: Two-electrode voltage clamp is typically applied to oocytes expressing channels or transporters.

Experiment [2] concerns the target T2, R282E-PepT1. Nature of the experiment: Inhibition of [3H]-D-Phe-L-Gln uptake into Xenopus oocytes expressing R282E-PepT1 (competition, Ki). The following applies: pHout 5.5, 0.4 μM [3H]-D-Phe-L-Gln. The method, then: Zero-trans uptake of [^3H]-D-Phe-L-Gln (17.4 Ci/mmole, custom synthesised, Cambridge Research Biochemicals, Stockton-on-Tees, UK) was performed as previously described ([Meredith, 2004]). Briefly, 5 oocytes were incubated in 100 μl of uptake medium (95 mM NaCl, 2 mM KCl, 1 mM CaCl2, 0.42 mM MgCl2, 10 mM Tris/Hepes pH 7.4 or Tris/Mes pH 5.5) with tracer (0.4 μM) [^3H]-D-Phe-L-Gln. After incubation, the oocytes were washed sequentially five times in 1 ml of ice-cold 120 mM NaCl solution, lysed individually with 100 μl 2% (w/v) SDS and liquid scintillation counted. As a control non-injected oocytes were also incubated in uptake medium with [^3H]-D-Phe-L-Gln as above.
The affinity of wild-type and mutant PepT1 were assessed by competition studies with 0.4 μM [^3H]-D-Phe-L-Gln and Gly-L-Gln present in the uptake medium in concentrations from 0 to 2 mM using the protocol above, and the Ki calculated using the method of [Deves and Boyd (1989)].

As to `NC(=O)CC[C@H](NC(=O)[C@H](N)Cc1ccccc1)C(=O)O` [D-Phe-L-Gln], the “apparent stoichiometry (charge:peptide), normalised to wild-type 1:1” value on R282A-PepT1 turned out to be 5; on R282E-PepT1 [1], 4.
Turning to `NCC(=O)N[C@@H](CCC(N)=O)C(=O)O` [Gly-L-Gln] (H-Gly-Gln-OH), on R282E-PepT1 [2], the affinity, expressed as Ki, was 350 ± 170 µM.
